Reference: PubChem BioAssay (NCI)
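Test compounds were applied to cells in 96-well plates for 48 hours at 5 doses. At the GI50, growth is halved. TGI is the concentration that stops growth completely.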

Columns and labels:
Assay in all cases: growth of human tumour cells (NCI), 48 h
COLO 205 colon = tested on: COLO 205 colon
SK-OV-3 ovarian = tested on: SK-OV-3 ovarian
HS 578T breast = tested on: HS 578T breast
RPMI-8226 leukemia = tested on: RPMI-8226 leukemia
IGROV1 ovarian = tested on: IGROV1 ovarian
SK-MEL-2 melanoma = tested on: SK-MEL-2 melanoma
MDA-MB-435 = tested on: MDA-MB-435
TK-10 renal = tested on: TK-10 renal
M14 melanoma = tested on: M14 melanoma
CCRF-CEM leukemia = tested on: CCRF-CEM leukemia
UO-31 renal = tested on: UO-31 renal
NCI-H522 lung = tested on: NCI-H522 lung
SW-620 colon = tested on: SW-620 colon
HL-60(TB) leukemia = tested on: HL-60(TB) leukemia
SNB-19 CNS = tested on: SNB-19 CNS
HT29 colon = tested on: HT29 colon
OVCAR-8 ovarian = tested on: OVCAR-8 ovarian
EKVX NSCLC = tested on: EKVX NSCLC
SF-268 CNS = tested on: SF-268 CNS
MDA-MB-231 breast = tested on: MDA-MB-231 breast
U251 CNS = tested on: U251 CNS
UACC-257 melanoma = tested on: UACC-257 melanoma
SF-539 CNS = tested on: SF-539 CNS
NCI-H226 lung = tested on: NCI-H226 lung
HCT-15 colon = tested on: HCT-15 colon
SF-295 CNS = tested on: SF-295 CNS

For `N#Cc1c(NC(=O)c2ccccc2C(F)(F)F)sc2c1CCC(=O)C2`, the GI50 (COLO 205 colon) was 1870 nM, the TGI (COLO 205 colon) was 3740 nM and the GI50 (SK-OV-3 ovarian) was 4870 nM. It also gave a TGI (SK-OV-3 ovarian) of 50400 nM, a GI50 (HS 578T breast) of 1950 nM and a TGI (HS 578T breast) of 8360 nM. For the same compound, the GI50 (RPMI-8226 leukemia) was 272 nM, the TGI (RPMI-8226 leukemia) was 954 nM and the GI50 (IGROV1 ovarian) was 2370 nM. The TGI (IGROV1 ovarian) was 13100 nM, the GI50 (SK-MEL-2 melanoma) was 2650 nM and the TGI (SK-MEL-2 melanoma) was 7020 nM. The GI50 (MDA-MB-435) was 1970 nM, the TGI (MDA-MB-435) was 5860 nM and the GI50 (TK-10 renal) was 1640 nM. The TGI (TK-10 renal) was 9830 nM, the GI50 (M14 melanoma) was 2090 nM and the TGI (M14 melanoma) was 9330 nM. The GI50 (CCRF-CEM leukemia) was 325 nM, the TGI (CCRF-CEM leukemia) was 14900 nM and the GI50 (UO-31 renal) was 490 nM. For the same compound, the TGI (UO-31 renal) was 1820 nM, the GI50 (NCI-H522 lung) was 360 nM and the TGI (NCI-H522 lung) was 2580 nM. The GI50 (SW-620 colon) was 427 nM, the TGI (SW-620 colon) was 2520 nM and the GI50 (HL-60(TB) leukemia) was 405 nM. For the same compound, the TGI (HL-60(TB) leukemia) was 4020 nM, the GI50 (SNB-19 CNS) was 3370 nM and the TGI (SNB-19 CNS) was > 100000 nM. For the same compound, the GI50 (HT29 colon) was 771 nM, the TGI (HT29 colon) was 9170 nM and the GI50 (OVCAR-8 ovarian) was 1680 nM. For the same compound, the TGI (OVCAR-8 ovarian) was > 100000 nM, the GI50 (EKVX NSCLC) was 2680 nM and the TGI (EKVX NSCLC) was 11400 nM. It also gave a GI50 (SF-268 CNS) of 3310 nM, a TGI (SF-268 CNS) of 34000 nM and a GI50 (MDA-MB-231 breast) of 2080 nM. The TGI (MDA-MB-231 breast) was 5430 nM, the GI50 (U251 CNS) was 1240 nM and the TGI (U251 CNS) was > 100000 nM. For the same compound, the GI50 (UACC-257 melanoma) was 2210 nM, the TGI (UACC-257 melanoma) was 6480 nM and the GI50 (SF-539 CNS) was 480 nM. For the same compound, the TGI (SF-539 CNS) was 1910 nM, the GI50 (NCI-H226 lung) was 2090 nM and the TGI (NCI-H226 lung) was 5940 nM. The GI50 (HCT-15 colon) was 405 nM, the TGI (HCT-15 colon) was 1850 nM and the GI50 (SF-295 CNS) was 2580 nM. It also gave a TGI (SF-295 CNS) of 7050 nM.
